Assay results taken from patent publication US4073892A, “N^2 -alkoxynaphthylsulfonyl-L-argininamides and the pharmaceutically acceptable salts thereof” (Mitsubishi Chemical Industries Limited, priority 1974, dated 1978).

Tests used:
thrombin = biological target: T1, thrombin (Bos taurus, UniProt P00735); assay: fibrinogen coagulation time (antithrombotic activity); format: biochemical; settings: bovine fibrinogen, thrombin solution 5 units/ml, borate saline buffer pH 7.4, 25° C; normal coagulation time 50-55 seconds
T1 construct: purchased Mochida Pharmaceutical Co., Ltd
Experimental: Immediately after mixing, the reaction mixture was transferred from the ice bath to a bath maintained at 25° C. Coagulation times were taken as the period between the time of transference to the 25° C bath and the time of the first appearance of fibrin threads.
The term "concentration required to prolong the coagulation time by a factor of two" is the concentration of an active ingredient required to prolong the normal coagulation time 50-55 seconds to 100-110 seconds.

mice (male, 20 g) = assay: acute toxicity (LD50), intraperitoneal administration in mice; format: in vivo
Source text: Representative LD50 values, for example, for N^2 -(6, 7-dimethoxy-2-naphthylsulfonyl)-L-arginyl-N-(2-methoxyethyl)glycine, N^2 -(6, 7-dimethoxy-2-naphthylsulfonyl)-L-arginyl-N-(2-ethoxyethyl)-β-alanine, N^2 -(4, 6-dimethoxy-2-naphthylsulfonyl)-L-arginyl-N-(2-methoxyethyl)glycine, N^2 -(7-methoxy-2-naphthylsulfonyl)-L-arginyl-N-(2-methoxyethyl)glycine are 1,900-2,400, 660-1,000, 660-1,000, 2,000 milligrams per kilogram, respectively.

SMILES	Concentration Required to Prolong The Coagulation Time By A Factor of Two (thrombin) [µM]	acute toxicity value (LD50) (mice (male, 20 g))
CCCN(CC(=O)O)C(=O)[C@H](CCCNC(=N)N)NS(=O)(=O)c1ccc2cc(OC)c(OC)cc2c1 [Sample 1, N^2-(6,7-dimethoxy-2-naphthylsulfonyl)-L-arginyl-N-propylglycine]	8	–
CCCCN(CC(=O)O)C(=O)[C@H](CCCNC(=N)N)NS(=O)(=O)c1ccc2cc(OC)c(OC)cc2c1 [Sample 3, N^2-(6,7-dimethoxy-2-naphthylsulfonyl)-L-arginyl-N-butylglycine]	0.3	–
COc1cc2ccc(S(=O)(=O)N[C@@H](CCCNC(=N)N)C(=O)N(CC(=O)O)CC(C)C)cc2cc1OC [Sample 5, N^2-(6,7-dimethoxy-2-naphthylsulfonyl)-L-arginyl-N-isobutylglycine]	2	–
CCCCCN(CC(=O)O)C(=O)[C@H](CCCNC(=N)N)NS(=O)(=O)c1ccc2cc(OC)c(OC)cc2c1 [Sample 7, N^2-(6,7-dimethoxy-2-naphthylsulfonyl)-L-arginyl-N-pentylglycine]	5	–
CCCCCCN(CC(=O)O)C(=O)[C@H](CCCNC(=N)N)NS(=O)(=O)c1ccc2cc(OC)c(OC)cc2c1 [Sample 9, N^2-(6,7-dimethoxy-2-naphthylsulfonyl)-L-arginyl-N-hexylglycine]	1.5	–
COCCN(CC(=O)O)C(=O)[C@H](CCCNC(=N)N)NS(=O)(=O)c1ccc2cc(OC)c(OC)cc2c1 [Sample 13, N^2-(6,7-dimethoxy-2-naphthylsulfonyl)-L-arginyl-N-(2-methoxyethyl)glycine]	0.5	1,900-2,400 milligrams per kilogram
CCOC(=O)CN(CCOC)C(=O)[C@H](CCCNC(=N)N)NS(=O)(=O)c1ccc2cc(OC)c(OC)cc2c1 [Sample 14, N^2-(6,7-dimethoxy-2-naphthylsulfonyl)-L-arginyl-N-(2-methoxyethyl)glycine ethyl ester]	1.5	–
COCCN(CCC(=O)O)C(=O)[C@H](CCCNC(=N)N)NS(=O)(=O)c1ccc2cc(OC)c(OC)cc2c1 [Sample 15, N^2-(6,7-dimethoxy-2-naphthylsulfonyl)-L-arginyl-N-(2-methoxyehtyl)-β-alanine]	2.5	–
COCCN(CCCC(=O)O)C(=O)[C@H](CCCNC(=N)N)NS(=O)(=O)c1ccc2cc(OC)c(OC)cc2c1 [Sample 17, N^2-(6,7-dimethoxy-2-naphthylsulfonyl)-N-(2-methoxyethyl)-N-(3-carboxypropyl)-L-argininamide]	2.5	–
COCCCN(CC(=O)O)S(=O)(=O)c1ccc2cc(OC)c(OC)cc2c1 [Sample 19, N^2-(6,7-dimethoxy-2-naphthylsulfonyl)-N-(3-methoxypropyl)glycine]	5	–
CCOCCN(CCC(=O)O)C(=O)[C@H](CCCNC(=N)N)NS(=O)(=O)c1ccc2cc(OC)c(OC)cc2c1 [Sample 21, N^2-(6,7-dimethoxy-2-naphthylsulfonyl)-L-arginyl-N-(2-ethoxyethyl)-β-alanine]	4	660-1,000 milligrams per kilogram
COCCN(CC(=O)O)C(=O)[C@H](CCCNC(=N)N)NS(=O)(=O)c1cc(OC)c2cc(OC)ccc2c1 [Sample 23, N^2-(4,6-dimethoxy-2-naphthylsulfonyl)-L-arginyl-N-(2-methoxyethyl)glycine]	4	660-1,000 milligrams per kilogram
CCCCN(CC(=O)O)C(=O)[C@H](CCCNC(=N)N)NS(=O)(=O)c1cc(OC)c2cc(OC)ccc2c1 [Sample 25, N^2-(4,6-dimethoxy-2-naphthylsulfonyl)-L-arginyl-N-butylglycine]	2	–
CCOc1cc2ccc(S(=O)(=O)N[C@@H](CCCNC(=N)N)C(=O)N(CCOC)CC(=O)O)cc2cc1OCC [Sample 27, N^2-(6,7-diethoxy-2-naphthylsulfonyl)-L-arginyl-N-(2-methoxyethyl) glycine]	15	–
CCCCN(CC(=O)O)C(=O)[C@H](CCCNC(=N)N)NS(=O)(=O)c1ccc2cc(OC)ccc2c1 [Sample 31, N^2-(6-methoxy-2-naphthylsulfonyl)-L-arginyl-N-butylglycine]	0.5	–
COCCN(CC(=O)O)C(=O)[C@H](CCCNC(=N)N)NS(=O)(=O)c1ccc2ccc(OC)cc2c1 [Sample 35, N^2-(7-methoxy-2-naphthylsulfonyl)-L-arginyl-N-(2-methoxyethyl)glycine]	0.5	2,000 milligrams per kilogram
CCCCN(CC(=O)O)C(=O)[C@H](CCCNC(=N)N)NS(=O)(=O)c1ccc2ccc(OC)cc2c1 [Sample 39, N^2-(7-methoxy-2-naphthylsulfonyl)-L-arginyl-N-butylglycine]	0.5	–
COCCN(CC(=O)O)C(=O)[C@H](CCCNC(=N)N)NS(=O)(=O)c1cccc2c(OC)cccc12 [Sample 43, N^2-(5-methoxy-1-naphthylsulfonyl)-L-arginyl-N-(2-methoxyethyl) glycine]	2.5	–
CCOC(=O)CCN(CC(=O)O)C(=O)[C@H](CCCNC(=N)N)NS(=O)(=O)c1ccc2cc(OC)c(OC)cc2c1 [Sample 49, N^2-(6,7-dimethoxy-2-naphthylsulfonyl)-L-arginyl-N-(2-ethoxycarbonylethyl)glycine]	6.5	–
CCCCCCCCOC(=O)CN(CCOC)C(=O)[C@H](CCCNC(=N)N)NS(=O)(=O)c1ccc2cc(OC)c(OC)cc2c1 [Sample 50, N^2-(6,7-dimethoxy-2-naphthylsulfonyl)-L-arginyl-N-(2-methoxyethyl)glycine octyl ester]	2	–
COCCN(CC(=O)Oc1cccc(C)c1)C(=O)[C@H](CCCNC(=N)N)NS(=O)(=O)c1ccc2cc(OC)c(OC)cc2c1 [Sample 52, N^2-(6,7-dimethoxy-2-naphthylsulfonyl)-L-arginyl-N-(2-methoxyethyl) glycine m-tolyl ester]	20	–
COCCN(CC(=O)Oc1ccc2c(c1)CCC2)C(=O)[C@H](CCCNC(=N)N)NS(=O)(=O)c1ccc2cc(OC)c(OC)cc2c1 [Sample 53, N^2-(6,7-dimethoxy-2-naphthylsulfonyl)-L-arginyl-N-(2-methoxyethyl) glycine 5-indanyl ester]	30	–
CCCC(C(=O)O)N(CC(=O)O)C(=O)[C@H](CCCNC(=N)N)NS(=O)(=O)c1ccc2cc(OC)c(OC)cc2c1 (stereo partly drawn) [Sample 54, N^2-(6,7-dimethoxy-2-naphthylsulfonyl)-L-arginyl-N-(1-carboxybutyl)glycine]	55	–
COc1cc2ccc(S(=O)(=O)N[C@@H](CCCNC(=N)N)C(=O)N(CC(=O)O)CC(C)OC)cc2cc1OC (stereo partly drawn) [Sample 55, N^2-(6,7-dimethoxy-2-naphthylsulfonyl)-L-arginyl-N-(2-methoxypropyl)glycine]	6.5	–
COc1ccc2ccc(S(=O)(=O)N[C@@H](CCCNC(=N)N)C(=O)N(CC[S+](C)[O-])CC(=O)O)cc2c1 (stereo partly drawn) [Sample 57, N^2-(7-methoxy-2-naphthylsulfonyl)-L-arginyl-N-(2-methylsulfinylethyl)glycine]	6.5	–
